Results from ChEMBL document CHEMBL1201862, “PubChem BioAssay data set” (2004).
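96-well plates; 48 h exposure; 5 concentrations. Endpoints by linear interpolation between flanking doses. Not reached: highest tested concentration assigned. Abbreviation: GI50, concentration required for 50% inhibition of growth.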 Activity calls are given as the source filed them. Rule as the data show it: active = GI50 up to about 1.1 µM and inactive = higher.

Legend:
Assay in all cases: NCI-60 cell line screen, 48 h
SN12C = tested on: SN12C
MOLT-4 = tested on: MOLT-4
SK-MEL-28 = tested on: SK-MEL-28
SW-620 = tested on: SW-620
CAKI-1 = tested on: CAKI-1
IGROV-1 = tested on: IGROV-1
MCF7 = tested on: MCF7
UO-31 = tested on: UO-31
T47D = tested on: T47D
NCI-H226 = tested on: NCI-H226
OVCAR-3 = tested on: OVCAR-3
ACHN = tested on: ACHN
OVCAR-5 = tested on: OVCAR-5
A498 = tested on: A498
HOP-62 = tested on: HOP-62
A549 = tested on: A549
TK-10 = tested on: TK-10
HCC 2998 = tested on: HCC 2998

Compound: COC1=CC(=O)C(O)=C(C[C@@]2(C)[C@@H]3CCC[C@H](COC(=O)CCCCCNC(=O)OC(C)(C)C)[C@@]3(C)CC[C@@H]2C)C1=O
- GI50 (SN12C): > 10 µM (inactive)
- GI50 (MOLT-4): 3.1 µM (inactive)
- GI50 (SK-MEL-28): 8.63 µM (inactive)
- GI50 (SW-620): 6.34 µM (inactive)
- GI50 (CAKI-1): 4.61 µM (inactive)
- GI50 (IGROV-1): 3.61 µM (inactive)
- GI50 (MCF7): 4.22 µM (inactive)
- GI50 (UO-31): 6.47 µM (inactive)
- GI50 (T47D): 4.45 µM (inactive)
- GI50 (NCI-H226): 8.45 µM (inactive)
- GI50 (OVCAR-3): 5.92 µM (inactive)
- GI50 (ACHN): 3.32 µM (inactive)
- GI50 (OVCAR-5): > 10 µM (inactive)
- GI50 (A498): > 10 µM (inactive)
- GI50 (HOP-62): 5.08 µM (inactive)
- GI50 (A549): 3.59 µM (inactive)
- GI50 (TK-10): > 10 µM (inactive)

Compound: CCOc1cc2c(C(=O)CC)c(O)ccc2o1
- GI50 (SN12C): > 100 µM (inactive)
- GI50 (MOLT-4): 58.1 µM (inactive)
- GI50 (SK-MEL-28): > 35.3 µM (inactive)
- GI50 (SW-620): 57.3 µM (inactive)
- GI50 (CAKI-1): > 100 µM (inactive)
- GI50 (IGROV-1): > 100 µM (inactive)
- GI50 (UO-31): > 100 µM (inactive)
- GI50 (NCI-H226): > 100 µM (inactive)
- GI50 (OVCAR-3): > 100 µM (inactive)
- GI50 (ACHN): > 100 µM (inactive)
- GI50 (OVCAR-5): > 100 µM (inactive)
- GI50 (A498): > 52.7 µM (inactive)
- GI50 (HCC 2998): > 100 µM (inactive)
- GI50 (HOP-62): > 100 µM (inactive)
- GI50 (A549): > 100 µM (inactive)
- GI50 (TK-10): > 79.8 µM (inactive)

Compound: C=C1C(=O)O[C@@H]2C=C(C)C3=CC(=O)[C@](C)(C[C@H](OC(=O)/C(C)=C\C)[C@@H]12)O3
- GI50 (SN12C): 1.92 µM (inactive)
- GI50 (MOLT-4): 0.273 µM (active)
- GI50 (SK-MEL-28): 1.24 µM (inactive)
- GI50 (SW-620): 0.306 µM (active)
- GI50 (CAKI-1): 0.509 µM (active)
- GI50 (IGROV-1): 1.03 µM (active)
- GI50 (MCF7): 0.41 µM (active)
- GI50 (UO-31): 1.09 µM (active)
- GI50 (T47D): 0.916 µM (active)
- GI50 (NCI-H226): 2.28 µM (inactive)
- GI50 (ACHN): 0.489 µM (active)
- GI50 (OVCAR-5): 1.97 µM (inactive)
- GI50 (HCC 2998): 1.51 µM (inactive)
- GI50 (HOP-62): 3.14 µM (inactive)
- GI50 (A549): 1.73 µM (inactive)

Compound: O=C(CC(C(=O)c1ccsc1)c1ccccc1)c1cccs1 (configuration not stated)
- GI50 (SN12C): > 100 µM (inactive)
- GI50 (MOLT-4): 49.9 µM (inactive)
- GI50 (SK-MEL-28): > 100 µM (inactive)
- GI50 (SW-620): > 100 µM (inactive)
- GI50 (CAKI-1): > 100 µM (inactive)
- GI50 (IGROV-1): > 100 µM (inactive)
- GI50 (MCF7): 33 µM (inactive)
- GI50 (UO-31): 19.6 µM (inactive)
- GI50 (T47D): 11.8 µM (inactive)
- GI50 (NCI-H226): > 100 µM (inactive)
- GI50 (OVCAR-3): 96.8 µM (inactive)
- GI50 (ACHN): 67.6 µM (inactive)
- GI50 (OVCAR-5): > 100 µM (inactive)
- GI50 (A498): 77.6 µM (inactive)
- GI50 (HCC 2998): 85.3 µM (inactive)
- GI50 (HOP-62): > 100 µM (inactive)
- GI50 (TK-10): > 100 µM (inactive)

Compound: CCSc1nc2n(c(=S)n1)CCN2C
- GI50 (SN12C): 19.6 µM (inactive)
- GI50 (MOLT-4): 12.2 µM (inactive)
- GI50 (SK-MEL-28): 20.1 µM (inactive)
- GI50 (SW-620): 19.7 µM (inactive)
- GI50 (CAKI-1): 13.5 µM (inactive)
- GI50 (IGROV-1): 17.7 µM (inactive)
- GI50 (UO-31): 16.3 µM (inactive)
- GI50 (NCI-H226): 18.6 µM (inactive)
- GI50 (OVCAR-3): 20 µM (inactive)
- GI50 (ACHN): 19.1 µM (inactive)
- GI50 (OVCAR-5): 21.4 µM (inactive)
- GI50 (A498): 19.3 µM (inactive)
- GI50 (HCC 2998): 16.3 µM (inactive)
- GI50 (HOP-62): 28.6 µM (inactive)
- GI50 (A549): 24.5 µM (inactive)

Compound: CCCCNC(=S)N/C=C1\C(=O)Oc2ccccc2C1=O
- GI50 (SN12C): 68.5 µM (inactive)
- GI50 (MOLT-4): 43.3 µM (inactive)
- GI50 (SK-MEL-28): 77.8 µM (inactive)
- GI50 (SW-620): 41.7 µM (inactive)
- GI50 (CAKI-1): 26.1 µM (inactive)
- GI50 (IGROV-1): 35.4 µM (inactive)
- GI50 (MCF7): > 100 µM (inactive)
- GI50 (UO-31): 37.2 µM (inactive)
- GI50 (T47D): 81.5 µM (inactive)
- GI50 (NCI-H226): > 100 µM (inactive)
- GI50 (OVCAR-3): > 100 µM (inactive)
- GI50 (ACHN): 31.4 µM (inactive)
- GI50 (OVCAR-5): > 100 µM (inactive)
- GI50 (HCC 2998): 68.7 µM (inactive)
- GI50 (HOP-62): 80.2 µM (inactive)
- GI50 (A549): > 100 µM (inactive)
- GI50 (TK-10): > 100 µM (inactive)
